The target in one experiment is hOx1R (Homo sapiens (Human), UniProt O43613). The experiment in a line: Calcium accumulation in cells (FLIPR), hOx1R. It is filed as cell-based. The following applies: for Ki: inhibition of orexin A induced calcium accumulation, Cheng and Prusoff correction; for inhibition at 10 µM: measured at a concentration of 10 μM of compound. The method, then: (§1) Calcium Accumulation in Cells (FLIPR):
(§2) Cells expressing human orexin 1 or human orexin 2 receptors, were seeded at 8,000 cells/well in 384 well black-walled clear bottom, poly-D-lysine coated plates. After 24 h, the medium was removed and cells were washed once with phosphate buffered saline and serum-deprived overnight in assay buffer (130 mM NaCl, 5.4 mM KCl, 1.8 mM CaCl2, 0.8 mM MgSO4, 0.9 mM NaH2PO4, 25 mM glucose, 20 mM HEPES, pH 7.4) containing bovine serum albumin (1% w/v).
(§3) On the day of the experiment, the cells seeded in black plates were treated with assay buffer containing the Ca^2+ sensitive fluorescent dye Fluo-4-AM (2 μM), and probenecid (0.1 mM). After 1 h plates were washed twice with, and resuspended in, assay buffer containing probenecid (0.1 mM) using a multi plate washer. […] Fluorescence measurements were then continued every 1 S for 120 S followed by every 4 S for 240 S.
(§4) The measurements were typically made in two sequences:
(§5) Compounds of formula I were tested usually in a concentration range from 10^−9 M to 10^−5 M.
(§6) In the second round, performed one hour later (to allow for equilibration), Orexin A was tested either in the absence (calibration curves, Orexin A agonist controls) or in the presence of compounds of formula I to determine antagonism.

For a further experiment, the target named is hOx2R (Homo sapiens (Human), UniProt O43614). The experiment can be described thus: Calcium accumulation in cells (FLIPR), hOx2R. In kind it is cell-based. The following applies: for Ki: inhibition of orexin A induced calcium accumulation, Cheng and Prusoff correction; for inhibition at 10 µM: measured at a concentration of 10 μM of compound. As to the method:
as §1, §2, §3, §4, §5, §6

hOx2R, sequence (O43614 whole entry): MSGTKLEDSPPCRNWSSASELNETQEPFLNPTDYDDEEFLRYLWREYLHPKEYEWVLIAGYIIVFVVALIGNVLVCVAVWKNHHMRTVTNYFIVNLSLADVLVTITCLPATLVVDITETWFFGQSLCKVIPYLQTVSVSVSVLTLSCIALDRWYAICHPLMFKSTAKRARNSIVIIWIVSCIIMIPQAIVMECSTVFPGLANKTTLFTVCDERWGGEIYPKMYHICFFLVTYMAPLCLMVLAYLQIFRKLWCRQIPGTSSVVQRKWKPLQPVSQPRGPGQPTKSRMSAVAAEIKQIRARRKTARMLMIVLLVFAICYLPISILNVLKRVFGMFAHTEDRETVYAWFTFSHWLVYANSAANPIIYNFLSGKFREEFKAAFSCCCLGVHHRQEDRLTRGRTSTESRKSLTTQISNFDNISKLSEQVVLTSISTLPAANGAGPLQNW
hOx1R, sequence (O43613 whole entry): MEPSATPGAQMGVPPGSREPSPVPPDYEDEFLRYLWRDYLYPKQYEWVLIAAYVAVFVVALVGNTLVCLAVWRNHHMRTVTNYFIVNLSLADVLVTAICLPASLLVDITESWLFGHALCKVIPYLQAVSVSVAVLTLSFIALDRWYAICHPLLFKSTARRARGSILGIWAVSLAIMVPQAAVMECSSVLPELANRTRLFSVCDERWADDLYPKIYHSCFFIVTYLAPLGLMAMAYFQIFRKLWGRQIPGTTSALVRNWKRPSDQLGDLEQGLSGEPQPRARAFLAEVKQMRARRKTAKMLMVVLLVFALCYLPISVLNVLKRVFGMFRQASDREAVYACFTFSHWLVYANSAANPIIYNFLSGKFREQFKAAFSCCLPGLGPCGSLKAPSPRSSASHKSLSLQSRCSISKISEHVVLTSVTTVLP

One may read the Ki as a dissociation constant, usually derived from enzyme kinetics or from competition with a known ligand. With `O=C1N(Cc2ccc(-c3ncccn3)cc2)CCCC12CCN(c1cnc3ccccc3n1)CC2` [Example 101, 2-(4-(pyrimidin-2-yl)benzyl)-9-(quinoxalin-2-yl)-2,9-diazaspiro[5.5]undecan-1-one], the Ki on hOx1R was found to be 2790 nM; on hOx2R, 1380 nM.

Usually inhibition stands for the share of the control response that was lost under treatment. On to `Cc1noc(C)c1CN1CCCC2(CCN(c3cnc4ccccc4n3)CC2)C1=O` [Example 37, 2-((3,5-dimethylisoxazol-4-yl)methyl)-9-(quinoxalin-2-yl)-2,9-diazaspiro[5.5]undecan-1-one], for which the inhibition at 10 µM on hOx1R was 8%; on hOx2R, 22%.

As to `Cc1cc(CN2CCCC3(CCN(c4cnc5ccccc5n4)CC3)C2=O)no1` [Example 88, 2-((5-methylisoxazol-3-yl)methyl)-9-(quinoxalin-2-yl)-2,9-diazaspiro[5.5]undecan-1-one], the inhibition at 10 µM on hOx1R turned out to be 11%; on hOx2R, 25%.

Consider `O=C1N(Cc2noc(C3CCC3)n2)CCCC12CCN(c1cnc3ccccc3n1)CC2` [Example 89, 2-((5-cyclobutyl-1,2,4-oxadiazol-3-yl)methyl)-9-(quinoxalin-2-yl)-2,9-diazaspiro[5.5]undecan-1-one], for which the inhibition at 10 µM on hOx1R came out at 29%; at hOx2R, 24%.

In the case of `O=C1N(Cc2ccc3[nH]ccc3c2)CCCC12CCN(c1cnc3ccccc3n1)CC2` [Example 123, 2-((1H-indol-5-yl)methyl)-9-(quinoxalin-2-yl)-2,9-diazaspiro[5.5]undecan-1-one], the inhibition at 10 µM at hOx1R stood at 11%; at hOx2R it was 24%.

Regarding `Cc1cc(C)n(-c2ccccc2CN2CCCC3(CCN(c4cnc5ccccc5n4)CC3)C2=O)n1` [Example 115, 2-(2-(3,5-dimethyl-1H-pyrazol-1-yl)benzyl)-9-(quinoxalin-2-yl)-2,9-diazaspiro[5.5]undecan-1-one], the inhibition at 10 µM on hOx1R worked out at 57%. Further, the Ki on hOx2R turned out to be 1200 nM.

In the case of `CN1CCc2c(CN3CCCC4(CCN(c5cnc6ccccc6n5)CC4)C3=O)cccc21` [Example 145, 2-((1-methylindolin-4-yl)methyl)-9-(quinoxalin-2-yl)-2,9-diazaspiro[5.5]undecan-1-one], the Ki on hOx2R is 636 nM.

Turning to `O=C1N(Cc2cnn3ccccc23)CCCC12CCN(c1cnc3ccccc3n1)CC2` [Example 79, 2-(pyrazolo[1,5-a]pyridin-3-ylmethyl)-9-(quinoxalin-2-yl)-2,9-diazaspiro[5.5]undecan-1-one], the results for the Ki on hOx1R and at hOx2R were 2150 nM and 232 nM, respectively.

Regarding `Cc1cc(CN2CCCC3(CCN(c4cnc5ccccc5n4)CC3)C2=O)nn1C` [Example 84, 2-((1,5-dimethyl-1H-pyrazol-3-yl)methyl)-9-(quinoxalin-2-yl)-2,9-diazaspiro[5.5]undecan-1-one], the inhibition at 10 µM on hOx1R was 40%; on hOx2R it was 46%.

In the case of `O=C1N(Cc2c[nH]c3ccccc23)CCCC12CCN(c1cc(-c3ccccc3)ncn1)CC2` [Example 165, 2-((1H-indol-3-yl)methyl)-9-(6-phenylpyrimidin-4-yl)-2,9-diazaspiro[5.5]undecan-1-one], the values for the inhibition constant (Ki) on hOx1R and on hOx2R were 468 nM and 115 nM, respectively.

As to `O=C1N(Cc2cccc(N3CCOCC3)c2)CCCC12CCN(c1cnc3ccccc3n1)CC2` [Example 59, 2-(3-morpholinobenzyl)-9-(quinoxalin-2-yl)-2,9-diazaspiro[5.5]undecan-1-one], the inhibition at 10 µM was 12% at hOx1R and 31% on hOx2R.

Regarding `Cn1ncc2cccc(CN3CCCC4(CCN(c5cnc6ccccc6n5)CC4)C3=O)c21` [Example 107, 2-((1-methyl-1H-indazol-7-yl)methyl)-9-(quinoxalin-2-yl)-2,9-diazaspiro[5.5]undecan-1-one], the inhibitory constant (Ki) on hOx1R came out at 728 nM; at hOx2R, 115 nM.

Turning to `O=C1N(Cc2c[nH]c3ccccc23)CCCC12CCN(c1ccc(-c3nccs3)cn1)CC2` [Example 161, 2-((1H-indol-3-yl)methyl)-9-(5-(thiazol-2-yl)pyridin-2-yl)-2,9-diazaspiro[5.5]undecan-1-one], the inhibition at 10 µM at hOx1R was found to be 40%. Moreover, on hOx2R, the Ki came to 713 nM.

For the compound `N#Cc1ccc(CN2CCCC3(CCN(c4cnc5ccccc5n4)CC3)C2=O)cn1` [Example 100, 5-((1-oxo-9-(quinoxalin-2-yl)-2,9-diazaspiro[5.5]undecan-2-yl)methyl)picolinonitrile], the figures for the inhibition at 10 µM on hOx1R and at hOx2R were 29% and 13%, respectively.

For `O=C1N(Cc2cncn2-c2ccccc2)CCCC12CCN(c1cnc3ccccc3n1)CC2` [Example 110, 2-((1-phenyl-1H-imidazol-5-yl)methyl)-9-(quinoxalin-2-yl)-2,9-diazaspiro[5.5]undecan-1-one], the inhibitory constant (Ki) at hOx1R is 4210 nM; at hOx2R, 945 nM.

Regarding `O=C1N(Cc2cc(F)cc3c2OCOC3)CCCC12CCN(c1cnc3ccccc3n1)CC2` [Example 120, 2-((6-fluoro-4H-benzo[d][1,3]dioxin-8-yl)methyl)-9-(quinoxalin-2-yl)-2,9-diazaspiro[5.5]undecan-1-one], the inhibitory constant (Ki) amounted to 700 nM on hOx1R and 125 nM at hOx2R.

Turning to `O=C1N(Cc2cc(=O)[nH]c3ccccc23)CCCC12CCN(c1cnc3ccccc3n1)CC2` [Example 96, 4-((1-oxo-9-(quinoxalin-2-yl)-2,9-diazaspiro[5.5]undecan-2-yl)methyl)quinolin-2(1H)-one], the results for the Ki at hOx1R and on hOx2R were 2400 nM and 631 nM, respectively.

Regarding `COc1ccccc1-n1ccnc1CN1CCCC2(CCN(c3cnc4ccccc4n3)CC2)C1=O` [Example 112, 2-((1-(2-methoxyphenyl)-1H-imidazol-2-yl)methyl)-9-(quinoxalin-2-yl)-2,9-diazaspiro[5.5]undecan-1-one], the inhibition constant (Ki) came to 3520 nM at hOx1R and 1600 nM on hOx2R.

Take `Cn1c(CN2CCCC3(CCN(c4cnc5ccccc5n4)CC3)C2=O)nc2ccccc21` [Example 30, 2-((1-methyl-1H-benzo[d]imidazol-2-yl)methyl)-9-(quinoxalin-2-yl)-2,9-diazaspiro[5.5]undecan-1-one]: the inhibition at 10 µM was 17% at hOx1R and 33% at hOx2R.

In the case of `CC(C)c1nc(CN2CCCC3(CCN(c4cnc5ccccc5n4)CC3)C2=O)co1` [Example 176, 2-((2-isopropyloxazol-4-yl)methyl)-9-(quinoxalin-2-yl)-2,9-diazaspiro[5.5]undecan-1-one], the inhibition at 10 µM at hOx1R and on hOx2R was less than 10% each time.

`Cc1ccc(C)c(CN2CCCC3(CCN(c4cnc5ccccc5n4)CC3)C2=O)c1` [Example 20, 2-(2,5-dimethylbenzyl)-9-(quinoxalin-2-yl)-2,9-diazaspiro[5.5]undecan-1-one]: the Ki was determined as 945 nM on hOx1R and 205 nM at hOx2R.

In the case of `O=C1N(Cc2cccc3c2OCCN3)CCCC12CCN(c1cnc3ccccc3n1)CC2` [Example 132, 2-((3,4-dihydro-2H-benzo[b][1,4]oxazin-8-yl)methyl)-9-(quinoxalin-2-yl)-2,9-diazaspiro[5.5]undecan-1-one], the Ki came out at 3180 nM at hOx1R and 555 nM on hOx2R.

In the case of `Cn1cc(-c2ccccc2CN2CCCC3(CCN(c4cnc5ccccc5n4)CC3)C2=O)cn1` [Example 51, 2-(2-(1-methyl-1H-pyrazol-4-yl)benzyl)-9-(quinoxalin-2-yl)-2,9-diazaspiro[5.5]undecan-1-one], the inhibition at 10 µM on hOx1R is 57%; at hOx2R it was 32%.

For `O=C1N(Cc2c[nH]c3ccccc23)CCCC12CCN(c1ncnc3[nH]ccc13)CC2` [Example 155, 2-((1H-indol-3-yl)methyl)-9-(7H-pyrrolo[2,3-d]pyrimidin-4-yl)-2,9-diazaspiro[5.5]undecan-1-one], the inhibition constant (Ki) is 1530 nM on hOx1R and 239 nM at hOx2R.

For the compound `O=C1N(Cc2ccccc2-c2ncccn2)CCCC12CCN(c1cnc3ccccc3n1)CC2` [Example 151, 2-(2-(pyrimidin-2-yl)benzyl)-9-(quinoxalin-2-yl)-2,9-diazaspiro[5.5]undecan-1-one], the inhibition at 10 µM on hOx1R is 14%. In addition, the Ki at hOx2R came out at 675 nM.

On to `Cc1nc2ccccc2nc1N1CCC2(CCCN(Cc3c[nH]c4ccccc34)C2=O)CC1` [Example 170, 2-((1H-indol-3-yl)methyl)-9-(3-methylquinoxalin-2-yl)-2,9-diazaspiro[5.5]undecan-1-one], for which the inhibition constant Ki worked out at 1810 nM on hOx1R and 535 nM on hOx2R.

`Cc1ncc(CN2CCCC3(CCN(c4cnc5ccccc5n4)CC3)C2=O)c2c1OC(C)(C)OC2` [Example 117, 9-(quinoxalin-2-yl)-2-((2,2,8-trimethyl-4H-[1,3]dioxino[4,5-c]pyridin-5-yl)methyl)-2,9-diazaspiro[5.5]undecan-1-one]: the Ki on hOx1R came to 2380 nM; on hOx2R, 249 nM.

In the case of `Cc1cc(CN2CCCC3(CCN(c4cnc5ccccc5n4)CC3)C2=O)on1` [Example 105, 2-((3-methylisoxazol-5-yl)methyl)-9-(quinoxalin-2-yl)-2,9-diazaspiro[5.5]undecan-1-one], the inhibition at 10 µM at hOx1R came out at 47%. Also, on hOx2R, the Ki was 1380 nM.

As to `Cc1nc(-c2ccccc2)oc1CN1CCCC2(CCN(c3cnc4ccccc4n3)CC2)C1=O` [Example 119, 2-((4-methyl-2-phenyloxazol-5-yl)methyl)-9-(quinoxalin-2-yl)-2,9-diazaspiro[5.5]undecan-1-one], the inhibition constant Ki is 1900 nM at hOx1R and 291 nM at hOx2R.

For the origin of these results see patent US8530648B2, “Diaza-spiro[5.5]undecanes” (Novartis AG, priority 2009, dated 2013).
